Assay results from PMC8715119, “Second-generation non-hematopoietic erythropoietin-derived peptide for neuroprotection” (Redox Biology, 2021).

Legend:
[1] = system: differentiated neuronal PC12 cells; test: Cellular ROS level by H2DCFDA under H2O2; type: cell-based, rat; settings: H2O2 for 6 h; H2DCFDA staining; n = 5; Fig. 4b
Description: PC12 cells (#CRL-1721, ATCC, USA), a rat pheochromocytoma cell line derived from the adrenal medulla (#CRL-1721, ATCC, USA), were seeded on a dish, which was coated by poly L-lysine (0.01%; Sigma Chemical Co., USA), and grown in RPMI 1640 medium (#11875093, Gibco, USA), supplemented with 10% heat-inactivated horse serum (#26050088, Gibco, USA), 5% fetal bovine serum (FBS) (#SH30919.03, Hyclone, USA), and 1% penicillin/streptomycin at 37°C with 5% CO2. For neuronal differentiation, PC12 cells were plated at a density of 1.25x10^3 cell/cm^2 into 96-well plates coated with collagen 1 (#354236, BD Biosciences, USA) and grown in RPMI 1640 medium supplemented with 50 ng/ml nerve growth factor (NGF) (BD Biosciences, USA) and 0.5% FBS for 10 days. The NGF-supplemented media was replaced with fresh media every 3 days during neuronal differentiation.
(§1) The cellular ROS level was measured using 2′,7′-dichlorodihydrofluorescein diacetate (H2DCFDA) (#D399, Invitrogen, USA). The cells were incubated with 5 μM H2DCFDA in PBS for 30 min, washed with PBS, and then resuspended in the medium for 2 h. After treatment of H2O2 without or with reEPO, or peptide, we monitored the oxidative stress by measuring the fluorescence intensities of H2DCFDA by using excitation and emission wavelengths of 485 nm and 535 nm, respectively.

[2] = system: undifferentiated PC12 cells; test: Cell proliferation (MTS) under low serum; type: cell-based, rat; settings: 0.5% fetal bovine serum, 48 h, reEPO 10 IU/ml, peptides 10 ng/ml, n = 5, Fig. 4c
Description: PC12 cells (#CRL-1721, ATCC, USA), a rat pheochromocytoma cell line derived from the adrenal medulla (#CRL-1721, ATCC, USA), were seeded on a dish, which was coated by poly L-lysine (0.01%; Sigma Chemical Co., USA), and grown in RPMI 1640 medium (#11875093, Gibco, USA), supplemented with 10% heat-inactivated horse serum (#26050088, Gibco, USA), 5% fetal bovine serum (FBS) (#SH30919.03, Hyclone, USA), and 1% penicillin/streptomycin at 37°C with 5% CO2. […]
Cell viability was evaluated by 3-[(4,5-dimethylthiazol-2-yl)-5,3-carboxymethoxyphenyl]-2-(4-sulfophenyl)-2H tetrazolium, inner salt (MTS) reduction assay (CellTiter 96 Aqueous One Solution Cell Proliferation Assay, Promega, Madison, WI, USA). […] The intracellular soluble formazan produced by cellular reduction of the MTS was determined by recording the absorbance at 490 nm using a microplate reader (VersaMax, Molecular Devices, USA). Cell proliferation was also evaluated by the MTS assay. […] The next day, the initial cell number was counted; after 48 h, under low FBS concentration (0.5%), with or without reEPO and peptides, cell number was measured by the MTS assay.

[3] = system: JAK2; test: Time-series immunoblot of phosphorylated JAK2; type: cell-based, rat; settings: undifferentiated PC12 cells; 1 nM; up to 90 min; normalized by JAK2; n = 3
Description: (§2) PC12 or HT-22 cells were lysed in 100 mM Tris-Cl (pH 6.8) with 4% SDS. The lysates were loaded onto sodium dodecyl sulfate-polyacrylamide gel electrophoresis (SDS-PAGE) (8–10%), and the proteins were transferred onto the nitrocellulose membrane. The membrane was blocked with 0.1% TBST and 5% non-fat dry milk at 25°C for 30 min. Primary antibodies were diluted in 0.1% TBST and 3% bovine serum albumin (BSA). The primary antibodies included anti-pJAK2 (#3776, Cell Signaling Technology, USA), anti-JAK2 (#3230, Cell Signaling Technology, USA), anti-pSTAT5 (#9351, Cell Signaling Technology, USA), anti-STAT5 ([…], Cell Signaling Technology, USA), anti-pAKT (#9271, Cell Signaling Technology, USA), anti-AKT (#9272, Cell Signaling Technology, USA), anti-pERK (#9101, Cell Signaling Technology, USA) anti-ERK (#9102, Cell Signaling Technology, USA), anti-EPOR (#sc-365662, Santa Cruz Biotechnology, USA), anti-β-Actin (Santa Cruz Biotechnology, USA), anti-Bax (Santa Cruz Biotechnology, USA), anti-cleaved Casp3 (Cell Signaling Technology, USA), and anti-cleaved Parp1 (Cell Signaling Technology, USA).

[4] = system: EPOR; test: Time-series immunoblot of EPOR protein level; type: cell-based, rat; settings: PC12 cells; 1 nM; normalized by β-Actin; n = 3
Description: as §2

[5] = system: cleaved Parp1; test: Immunoblot of cleaved Parp1 after hypoxia and re-oxygenation; type: cell-based, mouse; settings: HT-22 cells; reEPO 0.5 IU/ml, ML1-h3 1 ng/ml; normalized by β-Actin; n = 6
Description: as §2
The HT-22 cells were seeded onto 96-well or 6-well plates. The next day, HT-22 cells were placed inside a sealed air-tight container consisting of an anaeropack (Mitsubishi Gas Company, Tokyo, Japan), which can induce a hypoxic atmosphere by absorbing oxygen and generating carbon dioxide. […]

[6] = system: HT-22 cells; test: ROS level by H2DCFDA after hypoxia and re-oxygenation; type: cell-based, mouse; settings: reEPO 0.5 IU/ml, ML1-h3 1 ng/ml, n = 12
Description: HT-22 cells (kindly provided by Prof. Gil-Saeng Jeong in Keimyung University), an immortalized mouse hippocampal cell line, were cultured at 37°C and 5% CO2 in Dulbecco's modified eagle medium (DMEM, Invitrogen, USA) supplemented with 10% FBS and 1% penicillin/streptomycin at 37°C and 5% CO2.
as §1
The HT-22 cells were seeded onto 96-well or 6-well plates. The next day, HT-22 cells were placed inside a sealed air-tight container consisting of an anaeropack (Mitsubishi Gas Company, Tokyo, Japan), which can induce a hypoxic atmosphere by absorbing oxygen and generating carbon dioxide. The cells were maintained in the hypoxic condition at 37°C for 18 h and re-oxygenated for 3 h at 37°C and 5% CO2. Subsequently, the cells were treated with reEPO or the peptides for 19 h before viability analysis.

reEPO: Recombinant human EPO (Epoetin-α, CJ HealthCare Corporation)
Level of reactive oxygen species (ROS) induced by H2O2 [1]: decreased the levels of reactive oxygen species (ROS)
Cell proliferation (cell number) [2]: significantly increased the proliferation
Level of phosphorylated JAK2 (pJAK2) over time [3]: upregulated the level of phosphorylated JAK2 in ^1007/1008Tyr (pJAK2), an active form of JAK2 at 30–60 min; pJAK2 returned to the basal level at 90 min
Level of EPOR protein over time [4]: gradually decreased by reEPO for 15–45 min, and subsequently, it rapidly recovered to the basal level at 60 min
Level of cleaved Parp1 under H/R [5]: efficiently reduced the levels of Bax, cleaved Caspase 3, and cleaved Parp1
ROS level induced by H/R [6]: decreased ROS level induced by H/R
